Measured values: the NIST ThermoML archive (doi:10.1021/acs.jced.8b00036)
Values joined by “and” are separate entries in the source; they are usually repeats but may differ in a detail not shown here. Equal entries are not always repeated.

Settings: Capillary tube (Ostwald / Ubbelohde) method

FCC(F)(F)F [1,1,1,2-tetrafluoroethane]
Liquid
Settings | viscosity [mPa·s]
312.75 K, 4064 kPa | 0.1723
312.76 K, 4069 kPa | 0.1731
312.77 K, 3061 kPa | 0.1681
312.78 K, 3042 kPa | 0.1684
312.78 K, 3061 kPa | 0.1682
312.82 K, 4048 kPa | 0.173
312.83 K, 1706 kPa | 0.1656
312.96 K, 1701 kPa | 0.165
313.01 K, 1763 kPa | 0.1654
313.5 K, 1796 kPa | 0.1656
332.79 K, 3072 kPa | 0.1279
332.79 K, 3083 kPa | 0.1284
332.8 K, 3079 kPa | 0.1282
332.8 K, 4005 kPa | 0.1325
332.81 K, 4008 kPa | 0.1324
332.81 K, 4011 kPa | 0.1325
354.96 K, 4007 kPa | 0.09565
355.51 K, 4078 kPa | 0.09407
355.94 K, 4155 kPa | 0.09335

FC(F)(F)/C=C\C(F)(F)F [(Z)-1,1,1,4,4,4-hexafluorobut-2-ene]
Settings | viscosity
313.83 K, 513 kPa, Liquid | 0.3037 mPa·s
313.84 K, 513 kPa, Liquid | 0.3034 mPa·s
313.84 K, 514 kPa, Liquid | 0.3036 mPa·s
313.92 K, 2053 kPa, Liquid | 0.3115 mPa·s
313.94 K, 2037 kPa, Liquid | 0.3097 mPa·s
313.94 K, 2996 kPa, Liquid | 0.3143 mPa·s
313.94 K, 3001 kPa, Liquid | 0.3146 mPa·s
313.94 K, 4041 kPa, Liquid | 0.3198 mPa·s
313.95 K, 2025 kPa, Liquid | 0.3098 mPa·s
313.95 K, 3000 kPa, Liquid | 0.3143 mPa·s
313.95 K, 4049 kPa, Liquid | 0.3197 mPa·s
313.96 K, 4002 kPa, Liquid | 0.3194 mPa·s
314.26 K, 1040 kPa, Liquid | 0.3074 mPa·s
314.27 K, 1041 kPa, Liquid | 0.3068 mPa·s
314.31 K, 1050 kPa, Liquid | 0.3081 mPa·s
331.5 K, 503 kPa, Liquid | 0.2577 mPa·s
331.5 K, 505 kPa, Liquid | 0.2579 mPa·s
331.51 K, 506 kPa, Liquid | 0.2578 mPa·s
331.57 K, 2020 kPa, Liquid | 0.2593 mPa·s and 0.2599 mPa·s
331.57 K, 2033 kPa, Liquid | 0.26 mPa·s
331.81 K, 1002 kPa, Liquid | 0.2579 mPa·s
331.82 K, 1017 kPa, Liquid | 0.259 mPa·s
331.83 K, 1015 kPa, Liquid | 0.2588 mPa·s
331.84 K, 4062 kPa, Liquid | 0.2658 mPa·s
331.85 K, 4047 kPa, Liquid | 0.2652 mPa·s
331.87 K, 4059 kPa, Liquid | 0.2651 mPa·s
331.94 K, 3026 kPa, Liquid | 0.2608 mPa·s
331.94 K, 3039 kPa, Liquid | 0.2617 mPa·s
331.94 K, 3040 kPa, Liquid | 0.2617 mPa·s
353.79 K, 4019 kPa, Liquid | 0.2122 mPa·s
353.8 K, 4020 kPa, Liquid | 0.212 mPa·s and 0.2117 mPa·s
353.99 K, 2066 kPa, Liquid | 0.2011 mPa·s
353.99 K, 2067 kPa, Liquid | 0.2011 mPa·s
354 K, 2064 kPa, Liquid | 0.201 mPa·s
354.08 K, 3022 kPa, Liquid | 0.2047 mPa·s
354.1 K, 3021 kPa, Liquid | 0.2032 mPa·s
354.23 K, 1032 kPa, Liquid | 0.1944 mPa·s
354.23 K, 1033 kPa, Liquid | 0.1942 mPa·s
354.24 K, 1031 kPa, Liquid | 0.193 mPa·s
374.43 K, 4050 kPa, Liquid | 0.1702 mPa·s
374.43 K, 4056 kPa, Liquid | 0.1702 mPa·s
374.44 K, 2025 kPa, Liquid | 0.1613 mPa·s
374.44 K, 4050 kPa, Liquid | 0.1705 mPa·s
374.45 K, 2025 kPa, Liquid | 0.1618 mPa·s
374.46 K, 2025 kPa, Liquid | 0.1611 mPa·s
374.74 K, 3026 kPa, Liquid | 0.1632 mPa·s and 0.1645 mPa·s
374.75 K, 3026 kPa, Liquid | 0.1635 mPa·s
374.87 K, 492 kPa, Gas | 0.013 mPa·s
374.88 K, 492 kPa, Gas | 0.01305 mPa·s
393.63 K, 3044 kPa, Liquid | 0.1336 mPa·s
393.64 K, 3044 kPa, Liquid | 0.1339 mPa·s
393.65 K, 3044 kPa, Liquid | 0.1332 mPa·s
393.65 K, 4017 kPa, Liquid | 0.1377 mPa·s and 0.138 mPa·s and 0.1378 mPa·s
394 K, 2016 kPa, Liquid | 0.1278 mPa·s
394.01 K, 2016 kPa, Liquid | 0.128 mPa·s
394.03 K, 2016 kPa, Liquid | 0.1282 mPa·s
394.16 K, 499 kPa, Gas | 0.01348 mPa·s
394.19 K, 499 kPa, Gas | 0.01343 mPa·s
413.55 K, 4046 kPa, Liquid | 0.1104 mPa·s
413.56 K, 4047 kPa, Liquid | 0.11 mPa·s
413.63 K, 3011 kPa, Liquid | 0.103 mPa·s
413.63 K, 3015 kPa, Liquid | 0.103 mPa·s
413.75 K, 3010 kPa, Liquid | 0.1029 mPa·s
413.99 K, 503 kPa, Gas | 0.01378 mPa·s
414.21 K, 503 kPa, Gas | 0.01361 mPa·s
414.24 K, 1014 kPa, Gas | 0.01449 mPa·s
414.29 K, 1033 kPa, Gas | 0.01434 mPa·s and 0.01444 mPa·s
434.12 K, 3016 kPa, Liquid | 0.07044 mPa·s and 0.07094 mPa·s
434.13 K, 3016 kPa, Liquid | 0.07045 mPa·s
434.23 K, 502 kPa, Gas | 0.01388 mPa·s
434.23 K, 503 kPa, Gas | 0.01384 mPa·s
434.28 K, 1011 kPa, Gas | 0.01451 mPa·s
434.28 K, 1012 kPa, Gas | 0.01443 mPa·s
434.37 K, 4014 kPa, Liquid | 0.08047 mPa·s and 0.08072 mPa·s and 0.08096 mPa·s
454.24 K, 506 kPa, Gas | 0.01429 mPa·s
454.27 K, 506 kPa, Gas | 0.0143 mPa·s
454.34 K, 1003 kPa, Gas | 0.01547 mPa·s and 0.01568 mPa·s
454.57 K, 2031 kPa, Gas | 0.01628 mPa·s
454.58 K, 2030 kPa, Gas | 0.01633 mPa·s
473.27 K, 509 kPa, Gas | 0.02101 mPa·s
474.67 K, 500 kPa, Gas | 0.0152 mPa·s
474.69 K, 500 kPa, Gas | 0.01519 mPa·s
474.82 K, 999 kPa, Gas | 0.01587 mPa·s
474.83 K, 2004 kPa, Gas | 0.0169 mPa·s
474.84 K, 2004 kPa, Gas | 0.01661 mPa·s
474.85 K, 1000 kPa, Gas | 0.01579 mPa·s
